Assay results taken from US20100210816A1, “NMDAR Biomarkers for Diagnosing and Treating Cerebral Ischemia” (priority 2006, published 2010).

How the values were obtained:
NR2 antibodies [1] = assay: NR2 antibody monitoring in three patients (minor CVA, TIA, ischemic stroke) given oral Trental; type: in vivo, human
Method: The first case was a non-smoker who had previously undergone valve replacement surgery in 1987 and had received a coronary artery stent in 2002. The patient had been treated with coumudin since the first surgery. NR2 antibodies measured at base line were […] the 2 ng/ml cutoff. (FIG. 1). […] At the same time, the patient had complaints on chronic fatigue and numbness in the 4th and 5th digits of their left arm lasting quite a long period of time. […] Antibodies continued to decrease up to 6th mo. after treatment was initiated and remained below the cut off level more than 1 year after therapy.
The second patient was a apparently healthy person. Their blood assay for NR2 antibodies was performed initially on a voluntary basis as a healthy control. […] The patient used Plavix and Lipitor on daily basis as well.
The third patient was an non-smoker who had suffered ischemic stroke on May 28-29, 2002 after angioplasty. They had receiving coumadin, eardizem, atenolol, hytrin, lasix, and guaifinex when they entered the study.

[2] = acute ischemic stroke; non-significant reduction; 95% CI: 0.41, 1.02; cited from earlier work
[3] = patients with TIA or minor CVA; cited from earlier work
NR2 antibodies [4] = assay: Serial blood NR2 antibody levels over 24 months of aspirin treatment follow up in individuals with DM/AS at high risk for CVA; type: in vivo, human; conditions: for NR2 antibodies, 6 mo.: 6 months; for NR2 antibodies, 0 mo.: base level before treatment
Method: (§1) In this study, serial measurements of blood levels of NR2 antibodies in an out-patient setting in individuals with diabetes mellitus (DM) and atherosclerosis (AS) who are at high risk for subsequent CVA were evaluated to establish whether this biomarker can be used to monitor the efficacy of aspirin treatment. Every person who participated in the study underwent neurological examination and computed tomography (CT) of the brain. The age of the 33 persons (17 male/16 female) ranged from 47-64 yrs (mean 55.7 yrs). Patients with documented 5-10 year history of DM/AS and normal neurological examination without a previous history of neurological event such as transient ischemic attack (TIA), or prolonged reversible ischemic neurological deficit or stroke were observed. Based on laboratory and clinical testing, all participants were at borderline glucose intolerance, with blood glucose levels of 119 to 132 mg/dL, and had complaints on fatigue, low concentration of attention, and numbness in digits of left or right hand.
Out of 22 individuals, 10 (6 male/4 female) were randomly assigned to a placebo group and the rest used daily over-counter aspirin in a dose of 325 mg which formed group 1 (Table 3). None of people of group 1 developed the resistance to aspirin.
NR2 antibodies were detected at a base level for each group before treatment was initiated (0 mo.) and then each following 6 months for two years. […] A TIA event was documented in 1 patient from the placebo group. […] By the end of the study at 24 mo., two out of 9 persons suffered a TIA which developed into an acute ischemic stroke in one patient.

[5] = TIA rate over 24 months of aspirin treatment follow up in individuals with DM/AS; type: in vivo, human; conditions: 24 months follow up
Method: as §1
Out of 22 individuals, 10 (6 male/4 female) were randomly assigned to a placebo group and the rest used daily over-counter aspirin in a dose of 325 mg which formed group 1 (Table 3). […]
NR2 antibodies were detected at a base level for each group before treatment was initiated (0 mo.) and then each following 6 months for two years. […]

[6] = large meta-analysis, BMJ 1994; cited from earlier work
[7] = Group 1 (not aspirin-resistant, N=12), aspirin 325 mg daily
[8] = Group 2 (resistant to aspirin, N=9), aspirin 325 mg/day

SMILES | Effect on level of NR2 antibodies (NR2 antibodies [1]; person after TIA, oral 200 mg twice a day for 30 days, FIG. 2) | Effect on level of NR2 antibodies (NR2 antibodies [1]; person after ischemic stroke, oral 200 mg x 3 times a day for 60 days, FIG. 3) | Effect on level of NR2 antibodies (NR2 antibodies [1]; person, minor CVA, oral 200 mg twice a day for 30 days, FIG. 1) | Odds ratio of early death [2] | Reduction of the risk of TIA [3] [%] | NR2 antibodies, 6 mo. (NR2 antibodies [4]; [7]) [ng/mL] | NR2 antibodies, 0 mo. (NR2 antibodies [4]; [7]) [ng/mL] | Change of NR2 antibody levels (NR2 antibodies [4]; Group 1, aspirin 325 mg daily, below cut off of 2 ng/ml, no CVA consequences) | NR2 antibodies, 6 mo. (NR2 antibodies [4]; [8]) [ng/mL] | NR2 antibodies, 0 mo. (NR2 antibodies [4]; [8]) [ng/mL] | Change of NR2 antibody levels (NR2 antibodies [4]; Group 2, patients resistant to aspirin, any time during the study) | TIA rate [5, 7] | TIA rate [5, 8] | Reduction of incidence of stroke, myocardial infarction, or vascular death [6] [%]
CC(=O)CCCCn1c(=O)c2c(ncn2C)n(C)c1=O [Trental, pentoxifylline] | reduced the level of NR2 antibodies to the control level of healthy individuals | reduced the level of NR2 antibodies to the cut off | reduced the level of NR2 antibodies by the end of treatment | 0.64 | – | – | – | – | – | – | – | – | – | –
CC(=O)Oc1ccccc1C(=O)O [aspirin] | – | – | – | – | 20 | 2.51 ± 0.28 | 3.05 ± 0.21 | significantly reduced | 3.22 ± 0.30 | 2.87 ± 0.11 | no improvement in NR2 antibodies levels | 0 | 2/9 | 25
